Drawing on PubChem BioAssay (NCI), this text covers TGI and GI50 for 17 compounds.

SMILES strings stand for the structures. Several values for one entry are separate records, joined by “and”; a condition that tells them apart may be missing. Equal entries are not always repeated.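 Following 48 hours of exposure in 96-well plates, responses at five concentrations were used to interpolate endpoints linearly. GI50: concentration for 50% inhibition of growth. TGI is the concentration that stops growth completely.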 Bounds are passed on as bounds.

Some test systems named below: A549 NSCLC; HCT-15 colon; HS 578T breast; MDA-MB-435; MOLT-4 leukemia; OVCAR-4 ovarian; OVCAR-8 ovarian; SK-OV-3 ovarian; SN12C renal; SNB-75 CNS; TK-10 renal.
What all share (experiment): NCI tumour cell line growth inhibition, 48 h

Take `CCOC(=O)C(NC(=O)CC)(Nc1ccc(F)c(Cl)c1)C(F)(F)F` (stereo not drawn): the TGI in the test on A549 NSCLC, in the test on HCT-15 colon, in the test with HS 578T breast, in the test with MDA-MB-435, in the test with MOLT-4 leukemia and with OVCAR-4 ovarian was > 100 µM each time. For the same compound, the TGI in the test with OVCAR-8 ovarian, in the test with SK-OV-3 ovarian, in the test with SN12C renal, in the test on SNB-75 CNS and in the test on TK-10 renal was > 100 µM each time.

With `CCCCCCCCCCCCCCCCCC(=O)Nc1ccn(C2CCC(COP(=O)(O)O)O2)c(=O)n1` (stereo not drawn), the TGI in the test with A549 NSCLC, with HCT-15 colon, in the test on HS 578T breast, in the test on MDA-MB-435, with MOLT-4 leukemia and in the test with OVCAR-4 ovarian was > 100 µM throughout. The TGI in the test with OVCAR-8 ovarian, in the test with SK-OV-3 ovarian, in the test on SN12C renal, in the test on SNB-75 CNS and in the test with TK-10 renal was > 100 µM in each case.

On to `COC12C=CC(C=C1C#N)CC2` (stereo not drawn) (tested in a mixture with another compound), for which the TGI in the test on A549 NSCLC, in the test on HCT-15 colon, in the test on HS 578T breast, in the test on MDA-MB-435, in the test with MOLT-4 leukemia and in the test with OVCAR-4 ovarian was > 100 µM each time. The TGI in the test on OVCAR-8 ovarian, in the test with SK-OV-3 ovarian, in the test with SN12C renal, with SNB-75 CNS and in the test with TK-10 renal was > 100 µM in each case.

With `COC(=O)C1=CON2C3CC4CC(C3)CC(C4)C12C` (stereo not drawn), the TGI in the test on A549 NSCLC, with HCT-15 colon, with HS 578T breast, in the test on MDA-MB-435, in the test with MOLT-4 leukemia and in the test on OVCAR-4 ovarian was > 100 µM each time. Also, the TGI in the test with OVCAR-8 ovarian, with SK-OV-3 ovarian, in the test on SN12C renal, with SNB-75 CNS and in the test with TK-10 renal was > 100 µM in each case.

As for `CCN(CC)CCOC(=O)Cc1cccc2c(=O)cc(-c3ccccc3)oc12`, the GI50 was 57.4 µM with A549 NSCLC; 82.5 µM with HCT-15 colon; 3.37 µM in the test on MOLT-4 leukemia; 18.3 µM in the test with OVCAR-4 ovarian; 92.8 µM in the test on SN12C renal; 13 µM in the test with SNB-75 CNS. Besides, the TGI is 62.5 µM and > 209 µM in the test with A549 NSCLC; 62.5 µM and > 216 µM in the test on HCT-15 colon; 62.5 µM in the test with HS 578T breast; 62.5 µM in the test on MDA-MB-435; 62.5 µM in the test on MOLT-4 leukemia; 62.5 µM with OVCAR-4 ovarian. Moreover, the TGI in the test with OVCAR-8 ovarian is 62.5 µM and > 254 µM; in the test with SK-OV-3 ovarian, 62.5 µM and > 108 µM; with SN12C renal, 62.5 µM and > 320 µM; in the test on SNB-75 CNS it was 50.1 µM and 126 µM; in the test with TK-10 renal it was 52.5 µM.

Regarding `COc1ccc([C@]23CCN4COC[C@@H]([C@H]42)C2(CC3)OCC(C)(C)CO2)cc1OC`, the TGI in the test with A549 NSCLC, with HCT-15 colon, in the test on HS 578T breast, in the test on MDA-MB-435, in the test with MOLT-4 leukemia and in the test on OVCAR-4 ovarian was > 100 µM each time. For the same compound, the TGI with OVCAR-8 ovarian, with SK-OV-3 ovarian, in the test on SN12C renal, in the test with SNB-75 CNS and in the test on TK-10 renal was > 100 µM in each case.

For the compound `O=C1CS(=O)(=O)C(c2cccc(Oc3ccccc3)c2)N1c1ccccc1` (stereo not drawn), the TGI is > 100 µM with A549 NSCLC; 66 µM with HCT-15 colon; 69.9 µM in the test with HS 578T breast; 68.2 µM with MDA-MB-435; 65.7 µM in the test on MOLT-4 leukemia; > 100 µM in the test on OVCAR-4 ovarian. For the same compound, the TGI was > 100 µM in the test on OVCAR-8 ovarian; > 100 µM with SK-OV-3 ovarian; 39.7 µM in the test with SN12C renal; > 100 µM with SNB-75 CNS; 60 µM in the test on TK-10 renal.

`COc1cc(CCN(C)C)cc(OC)c1OC`: the TGI in the test with A549 NSCLC, in the test with HCT-15 colon, with HS 578T breast, in the test with MDA-MB-435, in the test with MOLT-4 leukemia and in the test with OVCAR-4 ovarian was > 100 µM throughout. Also, the TGI in the test with OVCAR-8 ovarian, in the test with SK-OV-3 ovarian, with SN12C renal, in the test with SNB-75 CNS and in the test on TK-10 renal was > 100 µM throughout.

On to `c1csc(-c2ccsc2-c2ccsc2)c1`, for which the TGI in the test on A549 NSCLC, in the test with HCT-15 colon, with HS 578T breast, with MDA-MB-435, in the test on MOLT-4 leukemia and in the test on OVCAR-4 ovarian was > 100 µM in each case. Besides, the TGI in the test on OVCAR-8 ovarian, in the test on SK-OV-3 ovarian, in the test with SN12C renal, in the test with SNB-75 CNS and in the test with TK-10 renal was > 100 µM throughout.

For the compound `COC1(c2cccs2)c2ccccc2C(OC)(c2cccs2)c2ccccc21` (stereo not drawn), the TGI is > 100 µM with A549 NSCLC; > 100 µM in the test on HCT-15 colon; 19.8 µM with HS 578T breast; > 100 µM with MDA-MB-435; > 100 µM in the test with MOLT-4 leukemia; > 100 µM in the test on OVCAR-4 ovarian. The TGI in the test on OVCAR-8 ovarian, in the test on SK-OV-3 ovarian, in the test on SN12C renal, with SNB-75 CNS and in the test on TK-10 renal was > 100 µM in each case.

As for `COC1=C2C=[N+](C)C3C(=C2C=CC1OC)Cc1cc2c(cc13)OCO2` (stereo not drawn), the TGI was 32.4 µM in the test on A549 NSCLC; 35.3 µM with HCT-15 colon; 51.2 µM with HS 578T breast; 33.3 µM in the test on MDA-MB-435; 17.8 µM in the test with MOLT-4 leukemia; 22.3 µM in the test on OVCAR-4 ovarian. Moreover, the TGI was > 100 µM with OVCAR-8 ovarian; 28.3 µM with SK-OV-3 ovarian; 18 µM in the test on SN12C renal; 28 µM in the test with SNB-75 CNS; 32.4 µM in the test on TK-10 renal.

For `CCCC(=O)NC(Nc1ccc(F)cc1)(C(F)(F)F)C(F)(F)F`, the TGI is > 100 µM in the test with A549 NSCLC; > 100 µM in the test on HCT-15 colon; > 100 µM in the test with HS 578T breast; > 100 µM with MDA-MB-435; > 100 µM with MOLT-4 leukemia; > 74.2 µM in the test on OVCAR-4 ovarian. Moreover, the TGI in the test on OVCAR-8 ovarian, in the test with SK-OV-3 ovarian, in the test with SN12C renal, in the test with SNB-75 CNS and with TK-10 renal was > 100 µM throughout.

Take `O=C(O)CCc1ccc2c(c1)CC1(Cc3ccccc3C1)C2`: the TGI with A549 NSCLC, with HCT-15 colon, in the test with HS 578T breast, in the test with MDA-MB-435, in the test on MOLT-4 leukemia and with OVCAR-4 ovarian was > 100 µM throughout. Besides, the TGI is > 100 µM with OVCAR-8 ovarian; > 100 µM in the test with SK-OV-3 ovarian; > 100 µM in the test with SN12C renal; 96.4 µM in the test on SNB-75 CNS; > 100 µM in the test on TK-10 renal.

Consider `CC(=O)OCCCCn1cc(Cn2ccc(=O)n(Cc3cn(CCCCOC(C)=O)nn3)c2=O)nn1`, for which the TGI in the test on A549 NSCLC, in the test on HCT-15 colon, with HS 578T breast, in the test on MDA-MB-435, in the test on MOLT-4 leukemia and in the test on OVCAR-4 ovarian was > 100 µM each time. For the same compound, the TGI in the test on OVCAR-8 ovarian, in the test on SK-OV-3 ovarian, in the test on SN12C renal, with SNB-75 CNS and in the test on TK-10 renal was > 100 µM throughout.

As to `Cc1ccc(S(=O)(=O)n2ccc(-c3ccc4ccn(S(=O)(=O)c5ccc(C)cc5)c4c3)c2)cc1`, the TGI in the test on A549 NSCLC, in the test on HCT-15 colon, with HS 578T breast, in the test with MDA-MB-435, in the test with MOLT-4 leukemia and with OVCAR-4 ovarian was > 100 µM in each case. The TGI in the test with OVCAR-8 ovarian, in the test on SK-OV-3 ovarian, in the test on SN12C renal, in the test with SNB-75 CNS and in the test with TK-10 renal was > 100 µM each time.

On to `CCCc1nnc2sc(COc3cc(Cl)c(OCc4nn5c(CCC)nnc5s4)cc3Cl)nn12`, for which the TGI in the test with A549 NSCLC was > 100 µM; in the test on HCT-15 colon, > 100 µM; with HS 578T breast, > 100 µM; with MDA-MB-435 it was > 100 µM; with MOLT-4 leukemia, > 100 µM; in the test with OVCAR-4 ovarian, 80.5 µM. Besides, the TGI was > 100 µM with OVCAR-8 ovarian; 82.5 µM in the test with SK-OV-3 ovarian; > 100 µM in the test with SN12C renal; 45.3 µM with SNB-75 CNS; > 100 µM with TK-10 renal.

Regarding `CC(=O)Oc1cc(OC(C)=O)c2c(C)cc(=O)oc2c1`, the TGI in the test on A549 NSCLC, in the test with HCT-15 colon, in the test on HS 578T breast, in the test with MDA-MB-435, in the test with MOLT-4 leukemia and in the test with OVCAR-4 ovarian was > 100 µM in each case. Also, the TGI in the test with OVCAR-8 ovarian, in the test on SK-OV-3 ovarian, in the test with SN12C renal, in the test on SNB-75 CNS and in the test on TK-10 renal was > 100 µM throughout.
